Assay results: patent US8691855B2, “Compounds, isomer thereof, or pharmaceutically acceptable salts thereof as vanilloid receptor antagonist and pharmaceutical compositions containing the same” (Amorepacific Corporation, priority 2008, dated 2014)

Tests used:
[1] = target: T1, vanilloid receptor (Rattus norvegicus, UniProt O35433); assay: 45Ca influx test (antagonist calcium uptake test) in rat DRG neurons stimulated with capsaicin; type: cell-based; details: neonatal SD rat DRG neurons; capsaicin 0.5 μM; 45Ca
T1 construct: DRG nerve cells from the primary culture of 2 days were equilibrated; endogenous in cells; host or cells: primary culture of dorsal root ganglion neurons from neonatal SD rats
T1 sequence (O35433 whole entry): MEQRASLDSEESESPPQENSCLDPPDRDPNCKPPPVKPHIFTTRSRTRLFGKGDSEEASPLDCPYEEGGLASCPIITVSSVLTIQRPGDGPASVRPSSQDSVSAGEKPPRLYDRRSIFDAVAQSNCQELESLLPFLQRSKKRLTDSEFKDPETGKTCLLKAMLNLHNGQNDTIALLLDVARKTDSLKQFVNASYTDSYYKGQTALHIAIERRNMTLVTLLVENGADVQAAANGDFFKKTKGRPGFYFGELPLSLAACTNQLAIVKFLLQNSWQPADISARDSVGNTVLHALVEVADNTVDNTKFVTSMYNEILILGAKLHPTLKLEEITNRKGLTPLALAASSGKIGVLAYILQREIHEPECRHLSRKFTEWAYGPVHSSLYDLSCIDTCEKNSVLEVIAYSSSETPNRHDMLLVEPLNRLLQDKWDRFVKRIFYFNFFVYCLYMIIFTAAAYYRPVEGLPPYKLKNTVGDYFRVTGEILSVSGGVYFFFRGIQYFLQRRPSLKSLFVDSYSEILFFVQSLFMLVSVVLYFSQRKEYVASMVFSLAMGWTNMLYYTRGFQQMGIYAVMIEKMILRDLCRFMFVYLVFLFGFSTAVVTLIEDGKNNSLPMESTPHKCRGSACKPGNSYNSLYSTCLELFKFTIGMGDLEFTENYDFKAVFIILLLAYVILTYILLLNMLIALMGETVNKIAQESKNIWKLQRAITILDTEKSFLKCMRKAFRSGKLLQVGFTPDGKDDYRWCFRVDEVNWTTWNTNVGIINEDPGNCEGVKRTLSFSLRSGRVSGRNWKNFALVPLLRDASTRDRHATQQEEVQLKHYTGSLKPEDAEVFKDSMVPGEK
Procedure, shortened: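 Neonatal SD rat DRG neurons, cultured 2 days with NGF 200 ng/ml, exposed to test compound plus 0.5 μM capsaicin and 45Ca (10 μCi/ml) in HEPES-buffered Ca/Mg-free HBSS, pH 7.4, 10 min at room temperature. Influx counted by scintillation; activity as percent inhibition of the 0.5 μM capsaicin maximal response.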

[2] = system: Male ICR mice; assay: Analgesic activity test: mouse writhing test by inducing with phenyl-p-quinone; type: in vivo; details: po, p.o., read-out: Analgesic effect (% Inhibition)
Description: 2. Analgesic Activity Test: Mouse Writhing Test by Inducing with Phenyl-p-quinone Male ICR mice (mean body weight 25 g) were maintained in a controlled lighting environment (12 h on/12 h off) for experiment. Animals received an intraperitoneal injection of 0.3 ml of the chemical irritant phenyl-p-quinone (dissolved in saline containing 5% ethanol to be a close of 4.5 mg/kg) and 6 mins later, the number of abdominal constrictions was counted in the subsequent 6 mins period. Animals (10 animals/group) received 0.2 ml of test compounds solution in vehicle of ethanol/Tween 80/saline (Oct. 10, 1980) intraperitoneally 30 min before the injection of phenyl-p-quinone. In the case of oral administration, 0.2 ml of test compounds solution in vehicle of ethanol/Tween 80/saline (5/5/90) were administered 54 min prior to the 0.2 ml of 0.02% phenyl-p-quinone injection. A reduction in the number of writhes responding to the test drug compound relative to the number responding in saline control group was considered to be indicative of an analgesic effect. Analgesic effect was calculated by % inhibition equation (% inhibition=(C-T)/C×100), wherein C and T represent the number of writhes in control and compound-treated group, respectively.

Row | IC50 [1] | SMILES | inhibition in vivo at 3 mg/kg [2] | inhibition in vivo at 0.3 mg/kg [2]
1 | 150 nM | C[C@@H](NC(=O)c1coc(Oc2cccc(C(C)(C)C)c2)n1)c1cc(F)c(NS(C)(=O)=O)c(F)c1 [Example 1, 2-(3-tert-Butyl-phenoxy)-oxazole-4-carboxylic acid [1-(3,5-difluoro-4-methanesulfonylamino-phenyl)-ethyl]-amide] | 21% | 
2 | 360 nM | C[C@@H](NC(=O)c1csc(-c2cccc(C(F)(F)F)c2)n1)c1cc(F)c(NS(C)(=O)=O)c(F)c1 [Example 94, 2-(3-Trifluoromethyl-phenyl)-thiazole-4-carboxylic acid [1-(3,5-difluoro-4-methanesulfonylamino-phenyl)-ethyl]-amide] | 46% | 
3 | 430 nM | C[C@@H](NC(=O)c1coc(Oc2cccc(C(F)(F)F)c2C2CC2)n1)c1cc(F)c(NS(C)(=O)=O)c(F)c1 [Example 46, 2-(2-Cyclopropyl-3-trifluoromethyl-phenoxy)-oxazole-4-carboxylic acid [1-(3,5-difluoro-4-methanesulfonylamino-phenyl)-ethyl]-amide] | 53% | 
4 | 410 nM | C[C@@H](NC(=O)c1coc(Oc2cccc(C(F)(F)F)c2)n1)c1cc(F)c(NS(C)(=O)=O)c(F)c1 [Example 2, 2-(3-Trifluoromethyl-phenoxy)-oxazole-4-carboxylic acid [1-(3,5-difluoro-4-methanesulfonylamino-phenyl)-ethyl]-amide] | 32% | 
5 | 30 nM | CC(C)c1cccc(-c2nc(C(=O)N[C@H](C)c3cc(F)c(NS(C)(=O)=O)c(F)c3)cs2)c1 [Example 80, 2-(3-Isopropyl-phenyl)-thiazole-4-carboxylic acid [1-(3,5-difluoro-4-methanesulfonylamino-phenyl)-ethyl]-amide] | 22% | 
6 | 140 nM | C[C@@H](NC(=O)c1coc(-c2cc(C(F)(F)F)cc(C(F)(F)F)c2)n1)c1cc(F)c(NS(C)(=O)=O)c(F)c1 [Example 87, 2-(3,5-Bis-trifluoromethyl-phenyl)-oxazole-4-carboxylic acid [1-(3,5-difluoro-4-methanesulfonylamino-phenyl)-ethyl]-amide] | 59% | 
7 | 64 nM | C[C@@H](NC(=O)c1ccc(-c2cccc(C(F)(F)F)c2)o1)c1cc(F)c(NS(C)(=O)=O)c(F)c1 [Example 120, (R)-5-(3-Trifluoromethyl-phenyl)-furan-2-carboxylic acid [1-(3,5-difluoro-4-methanesulfonylamino-phenyl)-ethyl]-amide] | 60% | 
8 | 360 nM | C[C@@H](NC(=O)c1coc(-c2cccc(C(F)(F)F)c2)n1)c1cc(F)c(NS(C)(=O)=O)c(F)c1 [Example 67, 2-(3-Trifluoromethyl-phenyl)-oxazole-4-carboxylic acid [1-(3,5-difluoro-4-methanesulfonylamino-phenyl)-ethyl]-amide] | 43% | 
9 | 280 nM | C[C@@H](NC(=O)c1coc(Oc2cccc(C3CC3)c2)n1)c1cc(F)c(NS(C)(=O)=O)c(F)c1 [Example 32, 2-(3-Cyclopropyl-phenoxy)-oxazole-4-carboxylic acid [1-(3,5-difluoro-4-methanesulfonylamino-phenyl)-ethyl]-amide] | 32% | 
10 | 50 nM | CC1CCc2c(Oc3nc(C(=O)N[C@H](C)c4cc(F)c(NS(C)(=O)=O)c(F)c4)co3)cccc21 (stereo partly shown) [Example 30, 2-(1-Methyl-indan-4-yloxy)-oxazole-4-carboxylic acid [1-(3,5-difluoro-4-methanesulfonylamino-phenyl)-ethyl]-amide] | 16% | 
11 | 73 nM | C[C@@H](NC(=O)c1csc(-c2cccc(C3CC3)c2)n1)c1cc(F)c(NS(C)(=O)=O)c(F)c1 [Example 101, 2-(3-Cyclopropyl-phenyl)-thiazole-4-carboxylic acid [1-(3,5-difluoro-4-methanesulfonylamino-phenyl)-ethyl]-amide] | 33% | 
12 | 910 nM | C[C@@H](NC(=O)c1csc(-c2cc(C(F)(F)F)cc(C(F)(F)F)c2)n1)c1cc(F)c(NS(C)(=O)=O)c(F)c1 [Example 93, 2-(3,5-Bis-trifluoromethyl-phenyl)-thiazole-4-carboxylic acid [1-(3,5-difluoro-4-methanesulfonylamino-phenyl)-ethyl]-amide] | 41% | 
13 | 45 nM | C[C@@H](NC(=O)c1ccc(-c2cc(C(F)(F)F)cc(C(F)(F)F)c2)o1)c1cc(F)c(NS(C)(=O)=O)c(F)c1 [Example 123, 5-(3,5-Bis-trifluoromethyl-phenyl)-furan-2-carboxylic acid [1-(3,5-difluoro-4-methanesulfonylamino-phenyl)-ethyl]-amide] |  | 21%
14 | 130 nM | C[C@@H](NC(=O)c1ccc(-c2ccccc2C(F)(F)F)o1)c1cc(F)c(NS(C)(=O)=O)c(F)c1 [Example 119, 5-(2-Trifluoromethyl-phenyl)-furan-2-carboxylic acid [1-(3,5-difluoro-4-methanesulfonylamino-phenyl)-ethyl]-amide] | 38% | 
15 | 210 nM | C[C@@H](NC(=O)c1coc(-c2ccc(Cl)c(C(F)(F)F)c2)n1)c1cc(F)c(NS(C)(=O)=O)c(F)c1 [Example 91, 2-(4-Chloro-3-trifluoromethyl-phenyl)-oxazole-4-carboxylic acid [1-(3,5-difluoro-4-methanesulfonylamino-phenyl)-ethyl]-amide] | 25% | 
16 | 1800 nM | CC(c1cccc(Oc2nc(C(=O)N[C@H](C)c3cc(F)c(NS(C)(=O)=O)c(F)c3)co2)c1)C(F)(F)F (stereo partly shown) [Example 35, 2-[3-(2,2,2-Trifluoro-1-methyl-ethyl)-phenoxy]-oxazole-4-carboxylic acid [1-(3,5-difluoro-4-methanesulfonylamino-phenyl)-ethyl]-amide] |  | 29%
17 | 130 nM | CCCc1c(Oc2nc(C(=O)N[C@H](C)c3cc(F)c(NS(C)(=O)=O)c(F)c3)co2)cccc1C(F)(F)F [Example 42, 2-(2-Propyl-3-trifluoromethyl-phenoxy)-oxazole-4-carboxylic acid [1-(3,5-difluoro-4-methanesulfonylamino-phenyl)-ethyl]-amide] |  | 30%
18 | 370 nM | CS(=O)(=O)Nc1ccc(CNC(=O)c2ccc(-c3cccc(C(F)(F)F)c3)o2)cc1F [Example 118, 5-(3-Trifluoromethyl-phenyl)-furan-2-carboxylic acid 3-fluoro-4-methanesulfonylamino-benzylamide] | 42% | 
19 | 680 nM | CS(=O)(=O)Nc1ccc(CNC(=O)c2ccc(-c3ccccc3C(F)(F)F)o2)cc1F [Example 117, 5-(2-Trifluoromethyl-phenyl)-furan-2-carboxylic acid 3-fluoro-4-methanesulfonylamino-benzylamide] | 39% | 
20 | 80 nM | CC(C)c1cccc(Oc2nc(C(=O)N[C@H](C)c3cc(F)c(NS(C)(=O)=O)c(F)c3)co2)c1 [Example 4, 2-(3-Isopropyl-phenoxy)-oxazole-4-carboxylic acid [1-(3,5-difluoro-4-methanesulfonylamino-phenyl)-ethyl]-amide] | 28% | 
21 | 100 nM | C[C@@H](NC(=O)c1ccc(-c2cccc(C3CC3)c2)o1)c1cc(F)c(NS(C)(=O)=O)c(F)c1 [Example 102, 5-(3-Cyclopropyl-phenyl)-furan-2-carboxylic acid [1-(3,5-difluoro-4-methanesulfonylamino-phenyl)-ethyl]-amide] | 58% | 
22 | 160 nM | CC(C)c1cccc(-c2nc(C(=O)N[C@H](C)c3cc(F)c(NS(C)(=O)=O)c(F)c3)co2)c1 [Example 69, 2-(3-Isopropyl-phenyl)-oxazole-4-carboxylic acid [1-(3,5-difluoro-4-methanesulfonylamino-phenyl)-ethyl]-amide] |  | 35%

Row | SMILES | IC50 [1] | inhibition in vivo at 3 mg/kg [2] | inhibition in vivo at 0.3 mg/kg [2]
23 | C[C@@H](NC(=O)c1coc(-c2cccc(C3CC3)c2)n1)c1cc(F)c(NS(C)(=O)=O)c(F)c1 [Example 100, 2-(3-Cyclopropyl-phenyl)-oxazole-4-carboxylic acid [1-(3,5-difluoro-4-methanesulfonylamino-phenyl)-ethyl]-amide] | 48 nM | 35% | 
